According to PMC9756784 (Journal of Mass Spectrometry and Advances in the Clinical …, 2022):
Like-named read-outs stand apart in the source and are kept apart here.

Tests used:
[1] = plasma
[2] = for Relative stability in whole blood and plasma: whole blood versus plasma; for Length of time for which stability is assumed: whole blood
[3] = format: physicochemical; settings: −80 °C

Row | Structure (SMILES) | Length of time for which stability is assumed ([1]; 4°C) [h 4 °C] | Length of time for which stability is assumed ([1]; RT (room temperature)) [h RT] | Length of time for which stability is assumed ([1]; −20°C, W = week) [W−20 °C] | Length of time for which stability is assumed ([1]; −80°C, M = month) [M−80 °C] | Relative stability in whole blood and plasma [2] | Length of time for which stability is assumed ([2]; 4°C) [h 4 °C] | Length of time for which stability is assumed ([2]; RT (room temperature)) [h RT] | Stock solution stable for up to [3] [months]
1 | Cc1nnc(SCC2=C(C(=O)O)N3C(=O)[C@@H](NC(=O)Cn4cnnn4)[C@H]3SC2)s1 [Cefazolin, cefazolin] | 48 | 24 | 2 | 8 | stable in both matrices | 48 | 24 | 
2 | CO/N=C(\C(=O)N[C@@H]1C(=O)N2C(C(=O)[O-])=C(C[N+]3(C)CCCC3)CS[C@H]12)c1csc(N)n1 [Cefepime, cefepime] | 8 | 5 | 1 | 8 |  | 48 | 24 | 
3 | CO/N=C(\C(=O)N[C@@H]1C(=O)N2C(C(=O)O)=C(COC(C)=O)CS[C@H]12)c1csc(N)n1 [Cefotaxime, cefotaxime] | 48 | 8 |  | 8 |  | 48 | 24 | 
4 | CC(C)(O/N=C(\C(=O)N[C@@H]1C(=O)N2C(C(=O)[O-])=C(C[n+]3ccccc3)CS[C@H]12)c1csc(N)n1)C(=O)O [Ceftazidime, ceftazidime] | 8 |  |  |  |  |  |  | 
5 | Cc1onc(-c2c(F)cccc2Cl)c1C(=O)N[C@@H]1C(=O)N2[C@@H]1SC(C)(C)[C@@H]2C(=O)O [Flucloxacillin, flucloxacillin] | 24 | 8 | 2 | 8 | more stable in plasma | 8 | 8 | 
6 | CC(=O)NC[C@H]1CN(c2ccc(N3CCOCC3)c(F)c2)C(=O)O1 [Linezolid, linezolid] | 48 | 24 | 2 | 8 | stable in both matrices | 48 | 24 | 20
7 | C[C@@H](O)[C@H]1C(=O)N2C(C(=O)O)=C(S[C@@H]3CN[C@H](C(=O)N(C)C)C3)[C@H](C)[C@H]12 [Meropenem, meropenem] | 24 | 8 | 1 | 8 | more stable in whole blood than in plasma | 48 | 8 | 
8 | CCN1CCN(C(=O)N[C@@H](C(=O)N[C@@H]2C(=O)N3[C@@H]2SC(C)(C)[C@@H]3C(=O)O)c2ccccc2)C(=O)C1=O [Piperacillin, piperacillin] | 24 | 5 | 1 |  |  | 48 | 24 | 
9 | C[C@]1(Cn2ccnn2)[C@H](C(=O)O)N2C(=O)C[C@H]2S1(=O)=O [Tazobactam, tazobactam] | 24 | 8 | 1 |  | more stable in whole blood than in plasma | 48 | 24 | 
